Measurements: paper PMC7401255, “Osirisynes G-I, New Long-Chain Highly Oxygenated Polyacetylenes from the Mayotte Marine Sponge Haliclona sp” (Marine Drugs, 2020)
pIC50: −log10 of the molar value. Where two headings read alike, the source gives them in different places.

Experiments:
FynB wt = target: T1, FynB wt (Homo sapiens, UniProt P06241); experiment: FynB kinase inhibition assay (ADP-Glo Kinase Assay); assay type: biochemical
T1 construct: Crelux construct CTX4, PC09815-1
Method: The assay buffer contained 20 mM Tris pH 8.0, 170 mM NaCl, and 10 mM MgCl2.
For the selected hits, 9.5 µL protein dilution (final concentration 200 nM) were mixed with 0.5 µL of compound dilution ranging from 1–0.0005 mg/mL (assay end conc. 33–0.016 μg/mL) and preincubated for 90 min.
Then, 5 µL substrate/ATP mix was added (final concentration substrate 10 µM and ATP 100 µM) and the assay was incubated for another 2 h. Afterwards, 5 µL of the 15 µL assay reaction were transferred to new wells and 5 µL ADP Glo Reagent was added to terminate the kinase reaction and deplete the remaining ATP. After 40 min, 10 µL of Kinase Detection Reagent was added to convert ADP to ATP and allow the newly synthesized ATP to be measured using a luciferase/luciferin reaction. After another 40 min, the assay plates were measured in Luminescence mode on a Tecan M1000 plate reader. The light generated, i.e., luminescent signal, is proportional to the ADP concentration produced and is correlated with kinase activity. The IC50 was calculated using XLfit.

Yeast proteasome = target: T2, Yeast proteasome (Saccharomyces cerevisiae, UniProt P30656); experiment: Proteasome inhibition assay (fluorescence intensity, Suc-Leu-Leu-Val-Tyr-AMC); assay type: biochemical; settings: 9 nM yeast proteasome, 5 µM substrate, preincubated 90 min, 22 °C
T2 construct: TUM Groll group (academic supplier)
Method: The assay was carried out at room temperature (22 °C) using Corning 4514 black low volume 384-well plates. All measurements were performed in duplicate and the final DMSO concentration was 3.3%. The assay buffer contained 100 mM Tris pH 7.5 and 1 mM MgCl2. (Table 5).
For the positive control, 9.5 µL protein dilution (final concentration 9 nM) were mixed with 0.5 µL of compound dilution ranging from 30–0.015 μM (assay end conc. 1000–0.5 nM). For the selected hits, 9.5 µL protein dilution (final concentration 9 nM) were mixed with 0.5 µL of compound dilution ranging from 1–0.0005 mg/mL (assay end conc. 33–0.016 μg/mL) and preincubated for 90 min. Then, 5 µL substrate mix was added (final concentration 5 µM) and incubated for 60 min. The assay plates were measured in Fluorescence mode on a Tecan M1000 plate reader (ex 380 nm, em 460 nm). The IC50 was calculated using XLfit.
For assay set-up and validation, the tool compound ONX-0914 was utilized. For this tool compound, a dose-dependent decrease in the Fluorescence signal was observed similar to previous results.

CDK7 = target: T3, CDK7 (Homo sapiens, UniProt P50613); experiment: CDK7 inhibition assay (ADP-Glo Kinase Assay); assay type: biochemical; settings: for pIC50: 300 nM CDK7, 30 µM CDKtide, 125 µM ATP, preincubated 120 min, 22 °C
T3 construct: Crelux construct CZY-3, PC09891
Method: The assay was carried out at room temperature (22 °C) using Corning white low volume 384-well plates. […]. The assay buffer contained 20 mM Hepes pH 7.0, 150 mM NaCl, and 10 mM MgCl2. (Table 4).
For the positive control, 9.5 µL protein dilution (final concentration 300 nM) were mixed with 0.5 µL of compound dilution ranging from 990–0.006 μM (assay end conc. 33–0.0002 μM). For the selected hits, 9.5 µL protein dilution (final concentration 300 nM) were mixed with 0.5 µL of compound dilution ranging from 1–0.0005 mg/mL (assay end conc. 33–0.016 μg/mL) and preincubated for 120 min.
Then, 5 µL substrate/ATP mix was added (final concentration substrate 30 µM and ATP 125 µM) and the assay was incubated for another 2 h. Afterwards, 5 µL of the 15 µL assay reaction were transferred to new wells and 5 μL ADP Glo Reagent was added to terminate the kinase reaction and deplete the remaining ATP. After 40 min, 10 µL of Kinase Detection Reagent was added to convert ADP to ATP and allow the newly synthesized ATP to be measured using a luciferase/luciferin reaction. After another 40 min, the assay plates were measured in Luminescence mode on a Tecan M1000 plate reader.
The light generated, i.e., luminescent signal, is proportional to the ADP concentration produced and is correlated with kinase activity. The IC50 was calculated using XLfit.

[1] = system: reverse transcriptase (RT); set-up: method as in doi:10.1016/S0040-4039(00)96493-1; settings: cited from earlier work
Na+/K+ ATPase = system: Na+/K+ ATPase; set-up: method as in doi:10.1016/S0040-4039(00)96493-1; settings: cited from earlier work
[2] = 200 nM FynB wt, 10 µM Fyn substrate, 100 µM ATP, preincubated 90 min, 22 °C, read-out: IC50 FynB Kinase Inhibition

T1 sequence (P06241 whole entry): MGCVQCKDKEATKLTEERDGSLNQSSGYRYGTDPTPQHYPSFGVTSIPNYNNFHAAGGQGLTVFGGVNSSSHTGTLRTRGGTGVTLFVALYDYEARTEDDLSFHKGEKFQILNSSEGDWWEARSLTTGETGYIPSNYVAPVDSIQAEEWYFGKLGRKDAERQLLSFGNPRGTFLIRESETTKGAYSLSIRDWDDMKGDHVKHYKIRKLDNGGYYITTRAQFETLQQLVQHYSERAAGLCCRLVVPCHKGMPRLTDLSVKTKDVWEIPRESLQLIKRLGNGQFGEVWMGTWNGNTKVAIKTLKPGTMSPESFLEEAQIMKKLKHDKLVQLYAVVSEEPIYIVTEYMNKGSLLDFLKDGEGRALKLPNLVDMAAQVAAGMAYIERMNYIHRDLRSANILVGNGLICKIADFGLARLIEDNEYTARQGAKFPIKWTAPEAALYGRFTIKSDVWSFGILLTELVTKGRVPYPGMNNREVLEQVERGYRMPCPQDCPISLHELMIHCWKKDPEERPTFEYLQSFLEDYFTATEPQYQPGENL
T3 sequence (P50613 whole entry, species assumed): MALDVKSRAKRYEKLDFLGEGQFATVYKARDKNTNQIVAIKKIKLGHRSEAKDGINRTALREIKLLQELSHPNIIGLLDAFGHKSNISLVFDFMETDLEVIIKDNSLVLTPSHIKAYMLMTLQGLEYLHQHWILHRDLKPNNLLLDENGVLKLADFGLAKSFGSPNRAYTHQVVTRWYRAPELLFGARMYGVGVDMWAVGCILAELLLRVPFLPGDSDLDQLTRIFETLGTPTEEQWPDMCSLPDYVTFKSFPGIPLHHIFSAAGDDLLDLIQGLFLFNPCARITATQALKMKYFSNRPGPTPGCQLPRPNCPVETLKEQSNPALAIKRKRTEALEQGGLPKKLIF

Structure (SMILES): C#CC(O)/C=C/C(O)CCCC(O)CC#CC(O)C#CC(O)CCCC(O)/C=C/CCCCCC(=O)CCCCCCCCCCCCC(O)C(O)C(O)C#CC(=O)O (stereo not shown) [Osirisyne G (1), osirisyne G]
- pIC50 (FynB wt; [2]): < 4.40
- pIC50 (Yeast proteasome): < 4.40

Structure (SMILES): C#CC(O)/C=C/C(O)CCCC(O)CC#CC(O)C#CC(O)CCCC(O)/C=C/CCCC(O)/C=C/CCCCCCCCCCCCCC(O)C(O)C#CC(=O)O (stereo not shown) [Osirisyne I (3), osirisyne I]
- pIC50 (FynB wt; [2]): < 4.39
- pIC50 (Yeast proteasome): < 4.39

Structure (SMILES): C#CC(O)/C=C/C(O)CCCC(O)CC#CC(O)C#CCCCCC(O)/C=C/CCCCCC(=O)CCCCCCCCCCCCCC(O)C(O)C#CC(=O)O (stereo not shown) [Osirisyne B (5), osirisyne B]
- Fyn kinase inhibition (in words) (FynB wt): inhibited
- pIC50 (FynB wt; [2]): 4.73
- CDK7 inhibition (in words) (CDK7): inhibited
- pIC50 (CDK7): 5.04
- pIC50 (Yeast proteasome): 6.59

Structure (SMILES): C#CC(O)/C=C/C(O)CCCC(O)CC#CC(O)C#CCCCCC(O)/C=C/CCCC(O)/C=C/CCCCCCCCCCCCCC(O)C(O)C#CC(=O)O (stereo not shown) [Osirisyne E (6), osirisyne E]
- Fyn kinase inhibition (in words) (FynB wt): inhibited
- pIC50 (FynB wt; [2]): < 4.38
- CDK7 inhibition (in words) (CDK7): inhibited
- pIC50 (CDK7): < 4.38
- pIC50 (Yeast proteasome): < 4.38
- reverse transcriptase (RT) inhibitory activity (in words) [1]: inhibitory activities
- Na+/K+ ATPase inhibitory activity (in words) (Na+/K+ ATPase): inhibitory activities

Structure (SMILES): C#CC(O)/C=C/C(O)CCCC(O)CC#CC(O)C#CC(O)CCCC(O)/C=C/CCCCCC(=O)CCCCCCCCCCCCCC(O)C(O)C#CC(=O)O (stereo not shown) [Osirisyne A (4), osirisyne A]
- pIC50 (FynB wt; [2]): < 4.39
- pIC50 (Yeast proteasome): < 4.39

Structure (SMILES): C#CC(O)/C=C/C(O)CCCC(O)CC#CC(O)C#CCCCCC(O)/C=C/CCCCCC(=O)CCCCCCCCCCCCC(O)C(O)C(O)C#CC(=O)O (stereo not shown) [Osirisyne H (2), osirisyne H]
- pIC50 (FynB wt): < 4.39
